Common to all, as to format: biochemical
Test [1] concerns the target T1, MMP-1 (Homo sapiens, UniProt P03956).
T1 sequence (P03956 100-469): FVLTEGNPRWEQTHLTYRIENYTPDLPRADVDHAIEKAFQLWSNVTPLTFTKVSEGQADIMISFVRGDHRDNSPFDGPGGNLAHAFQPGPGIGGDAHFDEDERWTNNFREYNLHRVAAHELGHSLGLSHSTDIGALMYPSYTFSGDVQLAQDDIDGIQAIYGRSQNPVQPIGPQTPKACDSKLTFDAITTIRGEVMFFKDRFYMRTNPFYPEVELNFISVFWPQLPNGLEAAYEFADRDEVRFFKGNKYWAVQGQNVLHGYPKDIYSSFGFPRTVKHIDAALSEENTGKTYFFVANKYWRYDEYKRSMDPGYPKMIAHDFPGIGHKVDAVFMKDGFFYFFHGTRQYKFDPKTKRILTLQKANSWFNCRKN
The experiment in a line: MMP-1 inhibitory action (Type I collagen Activity Measurement kit, FITC-labeled collagen type I). As to conditions: Experimental Example 2; read-out: IC50 MMP1.

In test [2] the target is T2, Recombinant Human MMP-13 (Homo sapiens, UniProt P45452).
T2 construct: purchased R&D systems 511-MM
The experiment in a line: MMP-13 inhibitory activity (MMP-13 specific fluorescent substrate with quencher). The note with it: Experimental Example 3; read-out: IC50 MMP13. The gist of the method: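 IC50 (μM) derived from % inhibition, normalised to wells without enzyme and without inhibitor, fluorescence read at 325/405 nm. Enzyme and compound preceded addition of the quenched 7-MCA…DPA substrate; Tris-HCl buffer, 25 °C for 1 h, acetic-acid stop.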

Test [3] concerns the target T3, aggrecanase-1 (Homo sapiens, UniProt O75173).
T3 sequence (O75173 213-837): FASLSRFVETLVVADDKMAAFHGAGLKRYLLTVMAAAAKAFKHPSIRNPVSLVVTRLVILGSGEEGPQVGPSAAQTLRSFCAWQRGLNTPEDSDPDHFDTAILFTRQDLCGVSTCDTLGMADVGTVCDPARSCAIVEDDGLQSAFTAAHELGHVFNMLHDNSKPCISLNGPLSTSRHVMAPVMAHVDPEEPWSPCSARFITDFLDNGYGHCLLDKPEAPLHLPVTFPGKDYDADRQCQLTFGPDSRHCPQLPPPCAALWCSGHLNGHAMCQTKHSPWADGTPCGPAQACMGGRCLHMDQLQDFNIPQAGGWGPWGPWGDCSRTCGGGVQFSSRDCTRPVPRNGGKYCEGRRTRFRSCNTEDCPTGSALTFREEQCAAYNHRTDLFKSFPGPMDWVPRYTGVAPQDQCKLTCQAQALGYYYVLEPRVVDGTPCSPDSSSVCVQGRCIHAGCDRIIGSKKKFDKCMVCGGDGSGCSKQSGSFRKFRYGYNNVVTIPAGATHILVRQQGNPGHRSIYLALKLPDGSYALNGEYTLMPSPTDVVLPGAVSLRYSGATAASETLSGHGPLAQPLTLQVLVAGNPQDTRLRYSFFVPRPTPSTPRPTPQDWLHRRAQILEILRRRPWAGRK
The experiment in a line: Aggrecanase-1 inhibitory action (Particle Assay, GAG release from aggrecan-containing polyacrylamide particles). The note with it: Experimental Example 1; read-out: IC50 AG1. The essentials: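 Readout was dimethylmethylene blue absorbance (595 nm) of glycosaminoglycan liberated into supernatant, calibrated with whale chondroitin sulfate. Substrate was aggrecan in polyacrylamide particles, digested 15 h at 37° C in Tris-HCl; TC50 (μM) derived from inhibition relative to no-enzyme and no-inhibitor controls.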

Take `CC(=O)N1CCC2C(c3ccccc31)C2(NS(=O)(=O)c1ccc(-c2ccc(Cl)cc2)s1)C(=O)O` (stereo not drawn) [Example 2-439]: the 50% inhibitory concentration (IC50) in test [1] was ≥ 1 µM; in test [2], < 0.1 µM; in test [3], < 0.1 µM.
For `CS(=O)(=O)CC1(c2ccccc2)CC1(NS(=O)(=O)c1ccc(-c2ccc(Cl)cc2)s1)C(=O)O` (stereo not drawn) [Example 2-440], the values for the concentration for half-maximal inhibition (IC50) in test [1], in test [2] and in test [3] were ≥ 10 µM, < 1 µM and < 1 µM, respectively.
Regarding `CC1[C@H](c2ccccc2)[C@]1(NS(=O)(=O)N1CC=C(c2ccc(Cl)cc2)CC1)C(=O)O` (stereo partly drawn) [Example 2-441], the IC50 in test [1] is ≥ 1 µM; in test [2], < 0.1 µM; in test [3], < 0.1 µM.
In the case of `CC1CCC(N2CCN(S(=O)(=O)N[C@@]3(C(=O)O)C(C)[C@@H]3c3ccccc3)CC2)CC1` (stereo partly drawn) [Example 2-442], the IC50 is ≥ 10 µM in test [1], ≥ 1 µM in test [2] and ≥ 1 µM in test [3].
`CC(C)N1CCN(c2ccc(S(=O)(=O)N[C@@]3(C(=O)O)C[C@]3(C)c3ccccc3)s2)CC1` [Example 2-443]: the results for the IC50 in test [1], in test [2] and in test [3] were ≥ 10 µM, ≥ 1 µM and ≥ 1 µM, respectively.
With `CC1[C@H](c2ccccc2)[C@]1(NS(=O)(=O)c1ccc(-n2cc(Cl)cn2)s1)C(=O)O` (stereo partly drawn) [Example 2-444], the values for the IC50 in test [1], in test [2] and in test [3] were < 1 µM, < 0.1 µM and < 0.1 µM, respectively.
In the case of `CC1[C@H](c2ccccc2)[C@]1(NS(=O)(=O)N1CCn2c(nc3cc(Cl)ccc32)C1)C(=O)O` (stereo partly drawn) [Example 2-445], the IC50 in test [1] is ≥ 10 µM; in test [2] it was < 1 µM; in test [3], < 1 µM.
With `O=C(O)C1(NS(=O)(=O)c2ccc(OCc3ccc(Cl)cc3Cl)cc2)C2Cc3ccccc3C21` (stereo not drawn) [Example 2-446], the IC50 in test [1] is ≥ 10 µM; in test [2], ≥ 1 µM; in test [3] it was ≥ 1 µM.
For `O=C(NO)C1(NS(=O)(=O)c2ccc(-c3ccc(Cl)cc3)s2)C2Cc3ccccc3C21` (stereo not drawn) [Example 2-447], the IC50 in test [1] is < 1 µM; in test [2], < 0.1 µM; in test [3] it was < 1 µM.
Consider `C[C@]1(c2ccccc2)C[C@@]1(NS(=O)(=O)c1ccc(-c2cc(Cl)cc(Cl)c2)s1)C(=O)O` [Example 2-448], for which the IC50 is ≥ 10 µM in test [1], ≥ 1 µM in test [2] and ≥ 1 µM in test [3].
`C[C@]1(c2ccccc2)C[C@@]1(NS(=O)(=O)c1ccc(-c2ccc3c(c2)OCO3)s1)C(=O)O` [Example 2-449]: the IC50 was ≥ 1 µM in test [1], < 0.1 µM in test [2] and < 0.1 µM in test [3].
As for `CC1[C@H](c2ccccc2)[C@]1(NS(=O)(=O)c1ccc(-c2cn(C)cn2)s1)C(=O)O` (stereo partly drawn) [Example 2-450], the results for the IC50 in test [1], in test [2] and in test [3] were ≥ 10 µM, < 1 µM and < 1 µM, respectively.
As for `Cc1nc(-c2ccc(S(=O)(=O)N[C@@]3(C(=O)O)C(C)[C@@H]3c3ccccc3)s2)no1` (stereo partly drawn) [Example 2-451], the IC50 was ≥ 10 µM in test [1], ≥ 1 µM in test [2] and ≥ 1 µM in test [3].
For the compound `C[C@]1(c2ccccc2)C[C@@]1(NS(=O)(=O)c1ccc(-c2cccc(N)c2)s1)C(=O)O` [Example 2-452], the IC50 in test [1] is < 1 µM; in test [2], < 0.1 µM; in test [3], < 1 µM.
Turning to `C[C@]1(c2ccccc2)C[C@@]1(NS(=O)(=O)c1ccc(-c2cccc(NS(C)(=O)=O)c2)s1)C(=O)O` [Example 2-453], the values for the IC50 in test [1], in test [2] and in test [3] were ≥ 10 µM, < 1 µM and ≥ 1 µM, respectively.
Consider `CC1[C@H](c2ccccc2)[C@]1(NS(=O)(=O)N1CCCN(c2ccc(Cl)cc2)CC1)C(=O)O` (stereo partly drawn) [Example 2-454], for which the IC50 was ≥ 10 µM in test [1], ≥ 1 µM in test [2] and < 1 µM in test [3].
Turning to `CC1[C@H](c2ccccc2)[C@]1(NS(=O)(=O)N1CCN(c2ccc(Cl)cn2)CC1)C(=O)O` (stereo partly drawn) [Example 2-457], the 50% inhibitory concentration (IC50) in test [1] was ≥ 1 µM; in test [2], < 0.1 µM; in test [3], < 0.1 µM.
Regarding `CC1[C@H](c2ccccc2)[C@]1(NS(=O)(=O)N1CCN(c2ccc(Br)cc2)CC1)C(=O)O` (stereo partly drawn) [Example 2-458], the 50% inhibitory concentration (IC50) in test [1] was ≥ 10 µM; in test [2], < 0.1 µM; in test [3], < 1 µM.
For `CC1[C@H](c2ccccc2)[C@]1(NS(=O)(=O)N1CCN(c2ccc(Cl)c(F)c2)CC1)C(=O)O` (stereo partly drawn) [Example 2-459], in that order: ≥ 1 µM, < 0.1 µM and < 1 µM.
As for `CC1[C@H](c2ccccc2)[C@]1(NS(=O)(=O)N1CCN(c2ccc(Cl)cc2F)CC1)C(=O)O` (stereo partly drawn) [Example 2-460], the figures for the IC50 in test [1], in test [2] and in test [3] were ≥ 1 µM, < 0.1 µM and < 1 µM, respectively.
In the same order, the values of `CC1[C@H](c2ccccc2)[C@]1(NS(=O)(=O)N1CCCN(c2ccc(Cl)cn2)CC1)C(=O)O` (stereo partly drawn) [Example 2-461] are ≥ 10 µM, ≥ 1 µM and < 1 µM.
In the same order, the values of `CC1[C@H](c2ccccc2)[C@]1(NS(=O)(=O)N1CCCN(c2ccc(F)cn2)CC1)C(=O)O` (stereo partly drawn) [Example 2-462] are ≥ 1 µM, ≥ 1 µM and < 1 µM.
For the compound `CC1[C@H](c2ccccc2)[C@]1(NS(=O)(=O)N1CCN(c2nc3ccccc3s2)CC1)C(=O)O` (stereo partly drawn) [Example 2-463], the IC50 is ≥ 10 µM in test [1], ≥ 1 µM in test [2] and ≥ 1 µM in test [3].
For `CC1[C@H](c2ccccc2)[C@]1(NS(=O)(=O)N1CCN(c2nc3ccccc3o2)CC1)C(=O)O` (stereo partly drawn) [Example 2-464], the IC50 was ≥ 10 µM in test [1], ≥ 1 µM in test [2] and ≥ 1 µM in test [3].
For the compound `Cc1nnc(N2CCN(S(=O)(=O)N[C@@]3(C(=O)O)C(C)[C@@H]3c3ccccc3)CC2)s1` (stereo partly drawn) [Example 2-465], the IC50 in test [1] was ≥ 10 µM; in test [2], ≥ 10 µM; in test [3], ≥ 1 µM.
As to `C[C@]1(c2ccccc2)C[C@@]1(NS(=O)(=O)c1ccc(-c2ncc(F)cc2F)s1)C(=O)O` [Example 2-466], the IC50 is ≥ 1 µM in test [1], ≥ 1 µM in test [2] and < 1 µM in test [3].
`C[C@]1(c2ccccc2)C[C@@]1(NS(=O)(=O)c1ccc(N2CCC(F)(F)C2)s1)C(=O)O` [Example 2-467]: the results for the half-maximal inhibitory concentration (IC50) in test [1], in test [2] and in test [3] were ≥ 10 µM, ≥ 10 µM and ≥ 1 µM, respectively.
Consider `CC1[C@H](c2ccccc2)[C@]1(NS(=O)(=O)c1ccc(-c2ccc3c(c2)OCO3)s1)C(=O)O` (stereo partly drawn) [Example 2-470], for which the concentration for half-maximal inhibition (IC50) in test [1] is < 1 µM; in test [2], < 0.1 µM; in test [3], < 0.1 µM.
Consider `CC1[C@H](c2ccccc2)[C@]1(NS(=O)(=O)N1CCCN(c2cccc(Cl)c2)CC1)C(=O)O` (stereo partly drawn) [Example 2-471], for which the half-inhibitory concentration (IC50) is ≥ 10 µM in test [1], ≥ 1 µM in test [2] and ≥ 1 µM in test [3].
On to `CC1[C@H](c2ccccc2)[C@]1(NS(=O)(=O)N1CCCN(c2ccc(F)cc2)CC1)C(=O)O` (stereo partly drawn) [Example 2-472], for which the figures for the IC50 in test [1], in test [2] and in test [3] were ≥ 1 µM, ≥ 10 µM and < 1 µM, respectively.
Consider `O=C(Nc1ccc(S(=O)(=O)N[C@@]2(C(=O)O)C[C@@H]2c2ccccc2)cc1)c1ccccc1` [Example 2-473], for which the values for the half-maximal inhibitory concentration (IC50) in test [1], in test [2] and in test [3] were ≥ 10 µM, ≥ 1 µM and ≥ 1 µM, respectively.
Regarding `O=C(Nc1ccccc1)c1ccc(S(=O)(=O)N[C@@]2(C(=O)O)C[C@@H]2c2ccccc2)cc1` [Example 2-474], the 50% inhibitory concentration (IC50) is ≥ 10 µM in test [1], ≥ 1 µM in test [2] and ≥ 1 µM in test [3].
In the case of `Cc1cc(N2CCN(S(=O)(=O)N[C@@]3(C(=O)O)C(C)[C@@H]3c3ccccc3)CC2)no1` (stereo partly drawn) [Example 2-475], the IC50 is ≥ 10 µM in test [1], ≥ 1 µM in test [2] and ≥ 1 µM in test [3].
Consider `Cc1cc(N2CCN(S(=O)(=O)N[C@@]3(C(=O)O)C(C)[C@@H]3c3ccccc3)CC2=O)no1` (stereo partly drawn) [Example 2-476], for which the values for the half-maximal inhibitory concentration (IC50) in test [1], in test [2] and in test [3] were ≥ 10 µM, ≥ 10 µM and ≥ 1 µM, respectively.

In general, IC50 refers to the concentration that inhibits the measured activity by half.

The values above are taken from US20080261994A1, “CYCLOPROPANE COMPOUNDS AND PHARMACEUTICAL USE THEREOF” (Japan Tobacco Inc., priority 2003, published 2008).
